Data reported in article PMC9948168, “Vanillin-Based Indolin-2-one Derivative Bearing a Pyridyl Moiety as a Promising Anti-Breast Cancer Agent via Anti-Estrogenic Activity” (ACS Omega, 2023).

Tests used:
CAKI-1 = assay: NCI-60 one-dose screening; type: cell-based; details: Homo sapiens, CAKI-1, Renal Cancer, read-out: GI (%)
SK-MEL-5 = assay: NCI-60 one-dose screening; type: cell-based; details: Homo sapiens, SK-MEL-5, Melanoma, read-out: GI (%)
A549/ATCC = assay: NCI-60 one-dose screening; type: cell-based; details: Homo sapiens, Non-Small Cell Lung Cancer, read-out: GI (%)
UACC-62 = assay: NCI-60 one-dose screening; type: cell-based; details: Homo sapiens, UACC-62, Melanoma, read-out: GI (%)
EKVX = assay: NCI-60 one-dose screening; type: cell-based; details: Homo sapiens, Non-Small Cell Lung Cancer, read-out: GI (%)
M14 = assay: NCI-60 one-dose screening; type: cell-based; details: Homo sapiens, M14, Melanoma, read-out: GI (%)
SNB-19 = assay: NCI-60 one-dose screening; type: cell-based; details: Homo sapiens, SNB-19, CNS Cancer, read-out: GI (%)
SK-MEL-28 = assay: NCI-60 one-dose screening; type: cell-based; details: Homo sapiens, SK-MEL-28, Melanoma, read-out: GI (%)
NCI/ADR-RES = assay: NCI-60 one-dose screening; type: cell-based; details: Homo sapiens, Ovarian Cancer, read-out: GI (%)
MOLT-4 = assay: NCI-60 one-dose screening; type: cell-based; details: Homo sapiens, MOLT-4, Leukemias, read-out: GI (%)
RXF 393 = assay: NCI-60 one-dose screening; type: cell-based; details: Homo sapiens, RXF 393, Renal Cancer, read-out: GI (%)
SF-268 = assay: NCI-60 one-dose screening; type: cell-based; details: Homo sapiens, SF-268, CNS Cancer, read-out: GI (%)
OVCAR-4 = assay: NCI-60 one-dose screening; type: cell-based; details: Homo sapiens, OVCAR-4, 10 μM; OVCAR-4, Ovarian Cancer; read-out: GI (%)
UO-31 = assay: NCI-60 one-dose screening; type: cell-based; details: Homo sapiens, UO-31, Renal Cancer, read-out: GI (%)
OVCAR-3 = assay: NCI-60 one-dose screening; type: cell-based; details: Homo sapiens, OVCAR-3, 10 μM; OVCAR-3, Ovarian Cancer; read-out: GI (%)
SK-MEL-2 = assay: NCI-60 one-dose screening; type: cell-based; details: Homo sapiens, SK-MEL-2, Melanoma, read-out: GI (%)
T-47D = assay: NCI-60 one-dose screening; type: cell-based; details: Homo sapiens, T47D, Breast Cancer, read-out: GI (%)
BT-549 = assay: NCI-60 one-dose screening; type: cell-based; details: Homo sapiens, BT-549, Breast Cancer, read-out: GI (%)
HL-60(TB) = assay: NCI-60 one-dose screening; type: cell-based; details: Homo sapiens, Leukemias, read-out: GI (%)
HCC-2998 = assay: NCI-60 one-dose screening; type: cell-based; details: Homo sapiens, HCC-2998, Colon Cancer, read-out: GI (%)
SF-295 = assay: NCI-60 one-dose screening; type: cell-based; details: Homo sapiens, SF-295, CNS Cancer, read-out: GI (%)
HS 578T = assay: NCI-60 one-dose screening; type: cell-based; details: Homo sapiens, Breast Cancer, read-out: GI (%)
NCI-H23 = assay: NCI-60 one-dose screening; type: cell-based; details: Homo sapiens, NCI-H23, Non-Small Cell Lung Cancer, read-out: GI (%)
NCI-H522 = assay: NCI-60 one-dose screening; type: cell-based; details: Homo sapiens, NCI-H522, Non-Small Cell Lung Cancer, read-out: GI (%)
MCF-12A cells = assay: Morphological assessment under inverted microscope; type: cell-based, human; details: 50 and 100 μM; 48 h after treatment
Method: (§1) In addition to the viability analyses, morphological evaluations were performed after treating the cells with different doses of 6j (5, 10, 20, 50, and 100 μM) to better understand what was going on in the plate wells. The cells were photographed under an inverted microscope 48 h after 6j treatment. […] The cell morphology has not deteriorated, and the membrane structures were preserved in a healthy way in the 6j-applied cells.
(§2) Morphological studies were performed to observe the effects of 6j on MCF-7 and MCF-12A cells, as previously reported.[63] In brief, 5 × 10^5 cells were seeded into six-well plates and incubated for 24 h. Afterward, increasing doses of compound 6j (5, 10, 20, 50, and 100 μM) were applied to the cells. The medium containing 0.1% DMSO was used as the untreated control. 48 h after treatments, the cells were photographed under an inverted microscope, Leica DM IL LED with a DFC-290 camera (Leica, Wetzlar, Germany).

MCF-7 cells = assay: Morphological assessment under inverted microscope; type: cell-based, human; details: 50 and 100 μM; 48 h after treatment
Method: as §1, §2

| SMILES | inhibition at 10 µM (CAKI-1) [%] | inhibition at 10 µM (SK-MEL-5) [%] | inhibition at 10 µM (A549/ATCC) [%] | inhibition at 10 µM (UACC-62) [%] | inhibition at 10 µM (EKVX) [%] | inhibition at 10 µM (M14) [%] | inhibition at 10 µM (SNB-19) [%] | inhibition at 10 µM (SK-MEL-28) [%] | inhibition at 10 µM (NCI/ADR-RES) [%] | inhibition at 10 µM (MOLT-4) [%] | inhibition at 10 µM (RXF 393) [%] | inhibition at 10 µM (SF-268) [%] | inhibition at 10 µM (OVCAR-4) [%] | inhibition at 10 µM (UO-31) [%] | inhibition at 10 µM (OVCAR-3) [%] | inhibition at 10 µM (SK-MEL-2) [%] | inhibition at 10 µM (T-47D) [%] | inhibition at 10 µM (BT-549) [%] | inhibition at 10 µM (HL-60(TB)) [%] | inhibition at 10 µM (HCC-2998) [%] | further results |
| --- | --- | --- | --- | --- | --- | --- | --- | --- | --- | --- | --- | --- | --- | --- | --- | --- | --- | --- | --- | --- | --- |
| COc1cc(/C=C2/C(=O)Nc3cc(Cl)ccc32)ccc1O [5c] | 31.6 | 29.1 | 5.44 | 41.5 | 77.2 | 21.2 | 24.6 | 1.11 | 11.5 | 27.9 | 6.84 | 21.8 | 25.4 | 39.5 | 25.8 | 7.35 | 49.2 | 23.8 | 13.9 | 0.25 | inhibition at 10 µM (SF-295): 15.8%; inhibition at 10 µM (HS 578T): 50.9%; inhibition at 10 µM (NCI-H23): 11.6%; inhibition at 10 µM (NCI-H522): 25.4% |
| COc1ccc(COc2ccc(/C=C3/C(=O)Nc4ccc(Cl)cc43)cc2OC)cc1 [6i] | 15.4 | 0.21 | -1.42 | 17.9 | 11.4 | 0.06 | 2.61 | -6.77 | 3.06 | 4.03 | -7.98 | -0.7 | -0.39 | 30.9 | -1.86 | -5.26 | -5.11 | -13.3 | 0.37 | -4.23 | inhibition at 10 µM (SF-295): -0.88%; inhibition at 10 µM (HS 578T): -2.52%; inhibition at 10 µM (NCI-H23): 3.99%; inhibition at 10 µM (NCI-H522): 5.36% |
| COc1cc(/C=C2/C(=O)Nc3ccc(Cl)cc32)ccc1OCc1ccccc1 [6f] | 7.2 | 1.24 | -0.72 | 11.5 | 4.35 | 0.98 | 3.8 | -4.79 | -2.56 | 3.2 | -11.6 | 5.46 | -6.85 | 22.4 | -6.72 | -0.03 | 5.17 | -5.93 | 0.49 | -7.18 | inhibition at 10 µM (SF-295): -0.63%; inhibition at 10 µM (HS 578T): 3.94%; inhibition at 10 µM (NCI-H23): 1.55%; inhibition at 10 µM (NCI-H522): 9.25% |
| COc1cc(C=C2C(=O)Nc3ccc(Cl)cc32)ccc1OCc1ccccn1 (mixture of isomers) [6j] | 24.4 | 3.73 | -2.5 | 21.4 | 27 | -0.51 | 8.13 | -15.1 | 5.4 | 4.33 | -0.84 | 1.24 | 8.34 | 29.6 | 7.98 | -9.33 | 9.54 | -8.61 | 3.78 | -6.73 | inhibition at 10 µM (SF-295): 6.2%; inhibition at 10 µM (HS 578T): -2.66%; inhibition at 10 µM (NCI-H23): 9.09%; inhibition at 10 µM (NCI-H522): 4.56%; MCF-12A cell morphology / proliferation (MCF-12A cells): continued to proliferate; MCF-7 cell morphology / proliferation (MCF-7 cells): remained stable by stopping cell division without being toxic |
